Reference: US5472973A, “Fluorenyl derivatives as anti-inflammatory agents” (Scios Nova Inc., priority 1992, dated 1995)

Assays:
[1] = system: reverse passive Arthus reaction; assay: Reverse Passive Arthus Reaction (RPA); format: in vivo, rat (male SD); conditions: ip, rat
Protocol: Male SD rats weighing between 200 and 300 g were used. Test compounds were dissolved in dimethyl sulfoxide and 1 ml/kg of this stock solution (100 mg/ml), on serial dilutions were injected intraperitoneally one hour before administration of the antigen or given orally. The animals were anesthetized inhalationally with isoflurane and then injected through the penile vein with 1 ml of a solution of 2.5 mg of Evan's blue dye and 5.0 mg of human serum albumin in 1 ml of saline. This treatment was followed immediately by intracutaneous injections of 0.075 ml of anti-human albumin diluted to contain 4.38 mg/ml of antibody at 2 sites opposite the midline back. Anesthesia was terminated and after three hours, the animals were sacrificed. The skin was removed and the blue stained areas cut out. The skin patches were soaked overnight in stoppered tubes containing 2 ml of 1N potassium hydroxide at 5° C. Then 9 ml of a mixture of five parts of a 1.2N phosphoric acid and thirteen parts of acetone were added to the tubes. The tube contents were agitated and centrifuged, and the absorbance measured at 620 nm. The data were calculated as inhibition of blueing by test compound compared to control animals receiving only antigen and antibody.

[2] = system: oxazolone-induced ear edema; assay: Inhibition of ear edema caused by oxazolone; format: in vivo, mouse (CF-1); conditions: given orally, mouse, 24 h; dose not given
Protocol: CF-1 mice, 25-30 g body weight, six animals per group were used. The mice were sensitized to the irritant two weeks prior to the test by dribbling 100 μL of a 3% solution of oxazolone in acetone onto the scrotum of the animal. Test compounds were administered orally at doses of 100 mg/kg and 300 mg/kg for 1 hour prior to oxazolone, intraperitoneally as follows: The test compound was dissolved in dimethyl sulfoxide and doses of 10 mg/kg, 30 mg/kg and 100 mg/kg were injected 15 minutes prior to irritant. The irritant, 3% oxazolone in acetone, was added to the surface of the ear, 5 μl added to the upper surface and 5 μl added to the lower surface. After twenty four hours, the thickness of the ear was measured to 0.01 mm by a micrometer with loose drag, positioned at the lateral-most edge of the mid-point of the pinna. Data were calculated as the inhibition of increased ear thickness compared to control animals' receiving only the irritant. In general, % inhibition of greater than 20% is statistically significant (p<0.05 or less, Student's t-test for unpaired data).

inflammatory screens = assay: Anti-inflammatory activity, general statements (oral activity, inflammatory screens); format: in vivo
Protocol: Such inflammatory agents typically include oxazolone, and the like. The reverse passive Arthus test offers another measure of the compound's utility in preventing an inflammatory response (Chang et al. Eur. J. Phar. 69:155-164 (1981)). Test compounds are typically administered intraperitoneally or orally. For intraperitoneal administration, the test compound can be given in dimethyl sulfoxide or in 0.5% methylcellulose 30 minutes prior to administration of the irritant. For oral administration, the test compound can be compounded into tablet or capsule form as well as dissolved in, for example, water or ethanol and swallowed prior to application of the irritant. Results can be expressed as the percent decrease in swelling in the compound-treated animals as compared to control animals that receive only the irritant.

plasma fibrinogen = assay: Adjuvant arthritis, plasma fibrinogen inhibition in rats; format: in vivo, rat (male Sprague Dawley); conditions: po, rat; for ED (maximal inhibition) at 100 mg/kg: 0.3 to 100 mg/kg, read-out: AA (p.o.) Dose yielding max inhibition (100 mg/kg)

| SMILES | ED50 [1] | inhibition of increased ear thickness (oxazolone) [2] | activity when taken orally (inflammatory screens) | ED (maximal inhibition) at 100 mg/kg (plasma fibrinogen) | ED (maximal inhibition) (plasma fibrinogen; given orally, read-out: dose achieving maximum inhibition of plasma fibrinogen) |
| --- | --- | --- | --- | --- | --- |
| O=C(Nc1ccc(C(=O)O)cc1)OCCC1c2ccccc2-c2ccccc21 [Example 7, N-[9H-(Fluorenyl-9-ethoxycarbonyl)]amino-4-benzoic acid] | 70 mg/kg | 50% | exhibit activity even when taken orally | 30 mg/kg | 3 mg/kg |
| O=C(Nc1ccc(C(=O)NS(=O)(=O)c2ccccc2)cc1)OCCC1c2ccccc2-c2ccccc21 [N-{[9H-(fluorenyl-9-ethoxycarbonyl)]-4-amino-benzoyl}-benzenesulfonamide] | – | – | exhibit activity even when taken orally | – | – |
| Cc1ccc2c(c1)C(CCOC(=O)Nc1ccc(C(=O)O)cc1)c1cc(C)ccc1-2 [Example 8, N-[9H-(2,7-Dimethylfluorenyl-9-ethoxycarbonyl)]amino-4-benzoic acid] | 100 mg/kg | – | exhibit activity even when taken orally | 100 mg/kg | – |
| O=C(Nc1ccc(C(=O)O)cc1)OC1c2ccccc2-c2ccccc21 [N-(9H-fluorenyl-9-oxycarbonyl)-4-aminobenzoic acid] | – | – | exhibit activity even when taken orally | – | – |
| O=C(Nc1ccc(C(=O)O)cc1)OCCC1c2cc(Cl)ccc2-c2ccc(Cl)cc21 [Example 9] | 34 mg/kg | – | exhibit activity even when taken orally | 3 mg/kg | – |
